This note sets out measurements from PubChem BioAssay AID330 (DTP/NCI, 2004).

The test concerns P388 leukemia ip, CD2F1 mice, survival T/C. The experiment in a line: NCI In Vivo Anticancer Drug Screen. Data for tumor model P388 Leukemia (intraperitoneal) in CD2F1 (CDF1) mice. To be noted: endpoint: median survival time, higher = longer survival. A digest of the protocol:
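Mice carrying the transplanted tumor received test compound or vehicle. Survival was recorded in each group, and the value is the treated-group measurement divided by that of the vehicle-treated control group.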

Where [1] appears, read: dose: 50.0 mg/kg/injection, schedule: Q01DX009 (ip), vehicle: Klucel (hydroxypropylcellulose) (HPC).
Setting [2] is: dose: 15.0 mg/kg/injection, schedule: Q01DX005 (ip), vehicle: saline with Tween-80.
Where [3] appears, read: dose: 30.0 mg/kg/injection, schedule: Q01DX005 (ip), vehicle: saline with Tween-80.
The mark [4] stands for this setting: dose: 60.0 mg/kg/injection, schedule: Q01DX005 (ip), vehicle: saline with Tween-80.
Setting [5] is: dose: 120.0 mg/kg/injection, schedule: Q01DX005 (ip), vehicle: saline with Tween-80.
The mark [6] stands for this setting: dose: 240.0 mg/kg/injection, schedule: Q01DX005 (ip), vehicle: saline with Tween-80.
The mark [7] stands for this setting: dose: 100.0 mg/kg/injection, schedule: Q01DX009 (ip), vehicle: Klucel (hydroxypropylcellulose) (HPC).
The mark [8] stands for this setting: dose: 200.0 mg/kg/injection, schedule: Q01DX009 (ip), vehicle: Klucel (hydroxypropylcellulose) (HPC).

“And” between values parts separate entries of the source, which are not always exact repeats. Identical values can stand only once. Inconclusive results and toxic doses are left out.

As for `CO[C@H]1Nc2c(ccc(C)c2O)C(=O)N2C=C(/C=C/C(N)=O)C[C@@H]12`, the T/C is 106 % of control (dose: 0.05 mg/kg/injection, schedule: Q04DX003 (ip), vehicle: DMSO); 122 % of control (dose: 0.05 mg/kg/injection, schedule: Q04DX003 (ip), vehicle: saline); 112 % of control (dose: 0.1 mg/kg/injection, schedule: Q04DX003 (ip), vehicle: DMSO); 152 % of control (dose: 0.13 mg/kg/injection, schedule: Q04DX003 (ip), vehicle: saline + alcohol); 118 % of control (dose: 0.2 mg/kg/injection, schedule: Q04DX003 (ip), vehicle: DMSO); 122 % of control (dose: 0.2 mg/kg/injection, schedule: Q04DX003 (ip), vehicle: saline). The T/C was 153 % of control and 161 % of control (2×) (dose: 0.22 mg/kg/injection, schedule: Q04DX003 (ip), vehicle: saline + alcohol); 155 % of control (dose: 0.4 mg/kg/injection, schedule: Q04DX003 (ip), vehicle: saline); 185 % of control (dose: 0.6 mg/kg/injection, schedule: Q04DX003 (ip), vehicle: saline + alcohol); 110 % of control (dose: 0.8 mg/kg/injection, schedule: Q04DX003 (ip), vehicle: saline); 150 % of control (dose: 200.0 micrograms/kg/injection, schedule: Q01DX009 (ip), vehicle: saline); 165 % of control (dose: 200.0 micrograms/kg/injection, schedule: Q04DX003 (ip), vehicle: saline with Tween-80).

Take `CN1CCc2c(c3ccccc3c3ccccc23)C1`: the T/C by setting is: (dose: 0.09 mg/kg/injection, schedule: Q01DX009 (ip), vehicle: Klucel (hydroxypropylcellulose) (HPC)) 99 % of control; (dose: 0.19 mg/kg/injection, schedule: Q01DX009 (ip), vehicle: Klucel (hydroxypropylcellulose) (HPC)) 107 % of control; (dose: 0.39 mg/kg/injection, schedule: Q01DX009 (ip), vehicle: Klucel (hydroxypropylcellulose) (HPC)) 104 % of control; (dose: 0.78 mg/kg/injection, schedule: Q01DX009 (ip), vehicle: Klucel (hydroxypropylcellulose) (HPC)) 102 % of control; (dose: 1.56 mg/kg/injection, schedule: Q01DX009 (ip), vehicle: Klucel (hydroxypropylcellulose) (HPC)) 104 % of control and 91 % of control; (dose: 3.12 mg/kg/injection, schedule: Q01DX009 (ip), vehicle: Klucel (hydroxypropylcellulose) (HPC)) 94 % of control. Further, the T/C is 86 % of control and 96 % of control (dose: 6.25 mg/kg/injection, schedule: Q01DX009 (ip), vehicle: Klucel (hydroxypropylcellulose) (HPC)); 104 % of control (dose: 12.5 mg/kg/injection, schedule: Q01DX009 (ip), vehicle: Klucel (hydroxypropylcellulose) (HPC)); 113 % of control and 92 % of control (dose: 25.0 mg/kg/injection, schedule: Q01DX009 (ip), vehicle: Klucel (hydroxypropylcellulose) (HPC)); 105 % of control under setting [1].

For `COc1ccc(-c2nccc3cc(OC)c(OC)cc23)cc1OC`, the T/C by setting is: (dose: 6.25 mg/kg/injection, schedule: Q01DX009 (ip), vehicle: water) 100 % of control; (dose: 12.5 mg/kg/injection, schedule: Q01DX009 (ip), vehicle: water) 103 % of control; (dose: 25.0 mg/kg/injection, schedule: Q01DX009 (ip), vehicle: water) 106 % of control; (dose: 50.0 mg/kg/injection, schedule: Q01DX009 (ip), vehicle: water) 118 % of control.

As for `Clc1ccccc1-c1nnc(-c2cccc(-c3nnc(-c4ccccc4Cl)o3)n2)o1`, the T/C was 89 % of control (dose: 7.5 mg/kg/injection, schedule: Q01DX005 (ip), vehicle: saline with Tween-80); 91 % of control under setting [2]; 89 % of control under setting [3]; 101 % of control under setting [4]; 97 % of control under setting [5]; 104 % of control under setting [6].

In the case of `COC(=O)c1c(-c2ccccc2)c(-c2ccccc2)n(-c2ccccc2)c1/N=C/N(C)C`, the T/C was 97 % of control (dose: 50.0 mg/kg/injection, schedule: Q01DX009 (ip), vehicle: saline with Tween-80); 90 % of control (dose: 100.0 mg/kg/injection, schedule: Q01DX009 (ip), vehicle: saline with Tween-80); 90 % of control (dose: 200.0 mg/kg/injection, schedule: Q01DX009 (ip), vehicle: saline with Tween-80).

As for `Cc1cc([Se][Se]c2cc(C)c(C)cc2[N+](=O)[O-])c([N+](=O)[O-])cc1C`, the T/C was 92 % of control under setting [4], 93 % of control under setting [5] and 91 % of control under setting [6].

For `CC[C@@]1(O)C(=O)OCc2c1cc1n(c2=O)Cc2cc3cc(OC)ccc3nc2-1`, the T/C runs as follows: (dose: 1.57 mg/kg/injection, schedule: Q04DX003 (ip), vehicle: other) 165 % of control; (dose: 3.13 mg/kg/injection, schedule: Q04DX003 (ip), vehicle: other) 98 % of control.

Regarding `O=C(OCc1ccccc1)n1nnc2ccccc21`, the T/C reads like this: under setting [4], 113 % of control; under setting [5], 105 % of control; under setting [6], 111 % of control.

Regarding `CCCCCCCCCCCCCCCCc1c(C)nc(N(C)C)oc1=O`, the T/C under setting [4] is 103 % of control; the T/C under setting [5] is 97 % of control; the T/C under setting [6] is 98 % of control and 100 % of control.

Consider `CC1CCC/C=C/C2CC(O)CC2C(O)/C=C\C(=O)O1` (stereo not given), for which the T/C was 101 % of control (dose: 8.75 mg/kg/injection, schedule: Q01DX005 (ip), vehicle: Klucel (hydroxypropylcellulose) (HPC)); 97 % of control (dose: 17.5 mg/kg/injection, schedule: Q01DX005 (ip), vehicle: Klucel (hydroxypropylcellulose) (HPC)); 93 % of control (dose: 35.0 mg/kg/injection, schedule: Q01DX005 (ip), vehicle: Klucel (hydroxypropylcellulose) (HPC)); 100 % of control (dose: 70.0 mg/kg/injection, schedule: Q01DX005 (ip), vehicle: Klucel (hydroxypropylcellulose) (HPC)).

With `CC(=O)OCC1OC([S][Sb]([CH3])[CH3])C(OC(C)=O)C(OC(C)=O)C1OC(C)=O` (stereo not given), the T/C reads like this: under setting [2], 112 % of control; under setting [3], 101 % of control; under setting [4], 115 % of control.

Regarding `OCCN(CCO)CC(O)COc1cccc2ccccc12` (stereo not given), the T/C is 98 % of control and 116 % of control (dose: 12.5 mg/kg/injection, schedule: Q01DX009 (ip), vehicle: saline); 110 % of control and 96 % of control (dose: 25.0 mg/kg/injection, schedule: Q01DX009 (ip), vehicle: saline); 103 % of control and 107 % of control (dose: 50.0 mg/kg/injection, schedule: Q01DX009 (ip), vehicle: saline); 104 % of control and 97 % of control (dose: 100.0 mg/kg/injection, schedule: Q01DX009 (ip), vehicle: saline); 110 % of control and 115 % of control (dose: 200.0 mg/kg/injection, schedule: Q01DX009 (ip), vehicle: saline).

Take `Cc1nc2ccc(Cl)cn2c1[N+](=O)[O-]`: the T/C is, setting by setting: under setting [1], 96 % of control; under setting [7], 95 % of control; under setting [8], 96 % of control.

In the case of `CCOC(=O)C1(COS(=O)(=O)c2ccc(C)cc2)C(=O)Nc2ccccc21` (stereo not given), the T/C reads like this: under setting [1], 100 % of control; under setting [7], 100 % of control; under setting [8], 97 % of control.

Turning to `CCOC(=O)c1cnc(NCCCNc2ncc(C(=O)OCC)c(=O)[nH]2)[nH]c1=O`, the T/C is 92 % of control (dose: 6.25 mg/kg/injection, schedule: Q01DX005 (ip), vehicle: Klucel (hydroxypropylcellulose) (HPC)); 101 % of control (dose: 12.5 mg/kg/injection, schedule: Q01DX005 (ip), vehicle: Klucel (hydroxypropylcellulose) (HPC)); 104 % of control (dose: 25.0 mg/kg/injection, schedule: Q01DX005 (ip), vehicle: Klucel (hydroxypropylcellulose) (HPC)); 105 % of control (dose: 50.0 mg/kg/injection, schedule: Q01DX005 (ip), vehicle: Klucel (hydroxypropylcellulose) (HPC)); 106 % of control (dose: 100.0 mg/kg/injection, schedule: Q01DX005 (ip), vehicle: Klucel (hydroxypropylcellulose) (HPC)); 88 % of control (dose: 200.0 mg/kg/injection, schedule: Q01DX005 (ip), vehicle: Klucel (hydroxypropylcellulose) (HPC)).

In the case of `CC(C)C(C)CS(=O)(=O)OCCCCOS(=O)(=O)CC(C)C(C)C` (stereo not given), the T/C reads like this: (dose: 50.0 mg/kg/injection, schedule: Q01DX005 (ip), vehicle: suspension in saline) 103 % of control; (dose: 100.0 mg/kg/injection, schedule: Q01DX005 (ip), vehicle: suspension in saline) 105 % of control; (dose: 200.0 mg/kg/injection, schedule: Q01DX005 (ip), vehicle: suspension in saline) 112 % of control.

As for `O=C(O)c1c(Cl)n(Cc2cc(Cl)ccc2Cl)c2ccccc12`, the T/C is, setting by setting: (dose: 60.0 mg/kg/injection, schedule: Q01DX005 (ip), vehicle: Klucel (hydroxypropylcellulose) (HPC)) 95 % of control; (dose: 120.0 mg/kg/injection, schedule: Q01DX005 (ip), vehicle: Klucel (hydroxypropylcellulose) (HPC)) 88 % of control.
